Results from patent US20240342239A1, “TREATMENT OF NON-CYSTIC FIBROSIS BRONCHIECTASIS” (Zambon S.P.A., priority 2021, published 2024).
“Also recorded” adds a separate entry of the source.

Legend:
NCFB patients = details: cited from earlier work
[1] = tested on: subjects with NCFB chronically infected with P. aeruginosa; experiment: PROMIS 1 Phase III clinical study: NCFB pulmonary exacerbations, inhaled CMS via I-neb vs placebo; format: in vivo, human; details: for hazard ratio, time to first NCFB pulmonary exacerbation: CMS vs placebo, Cox proportional hazard model; for rate ratio of CMS relative to placebo, NCFB pulmonary exacerbation annual rate: LS Mean
Procedure: As used herein the term “pulmonary exacerbation” in a patient refers to the presence concurrently of at least 3 of the following 8 symptoms/signs for at least 24 hours: • increased cough; • increased sputum volume and/or consistency; • increased sputum purulence; • new or increased haemoptysis; • increased wheezing; • increased dyspnoea; • increased fatigue/malaise; • episodes of fever (temperature≥38° C.) • and it is clinically determined that the subject requires and is prescribed systemic antibiotic therapy. A new pulmonary exacerbation is only considered to occur if there are at least 14 days between the end of the course of systemic antibiotics and the onset of new qualifying symptoms. (Note: A pulmonary exacerbation is reported as an Adverse Event or serious AE [SAE]).
A “severe” pulmonary exacerbation is herein defined a pulmonary exacerbation requiring intravenous antibiotics and/or hospitalisation.
A supportive analysis has been conducted using an alternative definition of NCFB pulmonary exacerbation. The re-classification of exacerbations has been conducted in a blinded fashion (before database lock). The alternative definition of pulmonary exacerbations used will be deterioration in three or more of the following key symptoms for at least 48 hours: • Cough • Sputum volume and/or consistency • Sputum purulence • Breathlessness and/or exercise tolerance (dyspnoea) • Fatigue and/or malaise • Haemoptysis • And: • a physician determines a change in bronchiectasis treatment is required when other potential causes of clinical deterioration have been discounted.
The number of NCFB pulmonary exacerbations during the treatment period has been analysed using a Poisson regression model allowing for over-dispersion including treatment, pooled sites and use of stable concomitant therapy with oral macrolides as fixed effects and log-time on trial as an offset.
The number and the percentage of subjects with NCFB pulmonary exacerbations, the number of pulmonary exacerbations and the total follow-up time in years have been summarised by treatment group. The adjusted yearly mean exacerbation rates in each treatment group and the adjusted rate ratio with their 95% CIs has been estimated by the model.
For the analysis, 2 pulmonary exacerbations have been considered as a single episode in cases where the second exacerbation starts less than 14 days after the end of the antibiotic therapy (oral or intravenous) for the first pulmonary exacerbation.
The time to the first NCFB pulmonary exacerbation and the time to the first severe NCFB pulmonary exacerbation has been calculated as the time in days from the date of the first dose of IMP to the date at which the first pulmonary exacerbation occurs (i.e. date at which the first pulmonary exacerbation occurs—date of the first dose+1). A […] has been used to compare the treatment groups. Subjects completing the trial without NCFB pulmonary exacerbations or who are discontinued prematurely without exacerbations, will be considered as censored at the time of their last follow-up. […]
The primary variable for this trial is the mean annual NCFB pulmonary exacerbation rate (frequency of pulmonary exacerbations) over 12 months.

[2] = tested on: bronchiectasis patients with P. aeruginosa; details: cited from earlier work; for time to first exacerbation compared to placebo: 1 MU twice daily through the I-neb, up to 6 months (PPCTP/001, Haworth 2014)
[3] = tested on: subjects with NCFB chronically infected with P. aeruginosa; experiment: PROMIS 1: quality of life by Saint George's Respiratory Questionnaire (SGRQ); format: in vivo, human; details: at the end of the CMS treatment
From the text: The SGRQ total score and domain scores (Symptoms, Activity and Impact scores) has been summarised at each visit by treatment group using descriptive statistics. Changes from baseline (Visit 2) have been also summarised for each post-baseline visit by treatment group. Scores have been computed according to the SGRQ manual.
SGRQ total score has been analysed using a linear mixed model for repeated measures including treatment, visit, treatment-by-visit interaction, use of stable concomitant therapy with oral macrolides and pooled sites as fixed effects and baseline value as covariate. An unstructured covariance matrix has been assumed and the Kenward-Roger adjustment has been used for the degrees of freedom. The least square means in each treatment group, the least square mean differences between treatments, their 95% CIs and associated p-values at each visit will be estimated by the model.
It is described e.g. in U.S. Pat. No. 6,367,470.

Pseudomonas aeruginosa = experiment: PROMIS 1: P. aeruginosa density in sputum; format: in vivo; details: for Mean change from baseline in P. aeruginosa density: mITT
From the text: Least square means in each treatment group, least square mean difference between treatments, their 95% CIs and associated p-values have been estimated.
Summary statistics of the P. aeruginosa density (log 10 CFU/g sputum) and change from baseline (Visit 2) will be provided by treatment group for each trial visit.
Results of the quantitative analysis for P. aeruginosa density will be presented as colony forming units (CFU) count per gram sputum.

[4] = sensitivity analysis, alternative definition of exacerbation

O=C(O)c1cn(C2CC2)c2cc(N3CCNCC3)c(F)cc2c1=O [ciprofloxacin]
trial outcome, primary endpoints (NCFB patients; ORBIT-3 and RESPIRE-2 trials): failed to achieve their primary endpoints
trial outcome, time of first exacerbation and rate of exacerbations vs placebo (NCFB patients; ORBIT-4 and RESPIRE-1 trials): showed clinical benefit

colistimethate sodium [CMS]
subjects with severe NCFB pulmonary exacerbations ([1]; 19/176 subjects): 10.8%
LS mean NCFB pulmonary exacerbation annual rate ([1]; PP Population): 0.491
LS mean rate ratio of CMS relative to placebo ([1]; PP Population): 0.583
reduction in pulmonary exacerbation rate vs placebo ([1]; PP Population): 42%
mean annual exacerbation rate (LS Mean) ([1]; adherent subjects (adherence>80%)): 0.494
median time to first severe NCFB pulmonary exacerbation, 25th and 75th percentile ([1]; human, in vivo): not reached
reduction in the rate of severe pulmonary exacerbations compared to placebo ([1]; human, in vivo): 59%
reduction in the risk of the first exacerbation event compared to placebo ([1]; mITT): 41%
annual rate of exacerbations ([1]; mITT, CMS 1 MIU by I-neb twice a day, 12 months): 0.58 per patient per year
hazard ratio, time to first NCFB pulmonary exacerbation ([1]; mITT): 0.590
hazard ratio, time to first NCFB pulmonary exacerbation ([1]; mITT, listed as CMS I-neb): 0.59
median time to first NCFB pulmonary exacerbation ([1]; mITT, from first dose of IMP): not reached
subjects who experienced a pulmonary exacerbation during the study ([1]; mITT, n=68): 38.6%
reduction in the annual rate of pulmonary exacerbations relative to placebo ([1]; mITT, primary analysis): 39%
rate ratio of CMS relative to placebo, NCFB pulmonary exacerbation annual rate ([1]; mITT, primary analysis): 0.612
rate ratio of CMS relative to placebo, NCFB pulmonary exacerbation annual rate ([1]; mITT, primary analysis, listed as CMS I-neb): 0.61
LS Mean rate ratio, pulmonary exacerbations ([1]; post-hoc analyses with low-recruiting countries combined): 0.591
LS mean NCFB pulmonary exacerbation annual rate ([1]; sensitivity analysis, alternative (ERS 2017) definition of exacerbation, mITT): 0.538
LS mean rate ratio of CMS relative to placebo [1, 4]: 0.642
reduction in pulmonary exacerbation rate vs placebo [1, 4]: 36%
LS Mean severe NCFB pulmonary exacerbation annual rate ([1]; severe = requiring intravenous antibiotics and/or hospitalisation): 0.116
LS Mean rate ratio of CMS relative to placebo, severe exacerbations ([1]; severe NCFB pulmonary exacerbations): 0.409
time to first exacerbation compared to placebo [2]: not statistically different from the placebo group
frequency of adverse respiratory effects (cough, dyspnoea, bronchospasm, sore throat) ([2]; human, in vivo): at least 1 in 10 people
admissions to emergency and days of hospitalization ([2]; observational study, 44 patients, 6 or 12 months, vs period preceding treatment (Lopez Gil Otero 2019)): reduced admissions to emergency and days of hospitalization
treatment difference in SGRQ total score by LS means [3]: 4.552
LS mean difference in P. aeruginosa density, CMS vs placebo (Pseudomonas aeruginosa; after 1 month): −1.620
Mean change from baseline in P. aeruginosa density (Pseudomonas aeruginosa; Visit 3 (28 days)): −1.59 log10(CFU/mL)
Mean change from baseline in P. aeruginosa density (Pseudomonas aeruginosa; Visit 5 (6 months)): −1.39 log10(CFU/mL)
Mean change from baseline in P. aeruginosa density (Pseudomonas aeruginosa; Visit 6 (9 months)): −1.56 log10(CFU/mL)
Mean change from baseline in P. aeruginosa density (Pseudomonas aeruginosa; Visit 7 (12 months/EOT)): −0.86 log10(CFU/mL)
course of P. aeruginosa density under treatment (Pseudomonas aeruginosa; over the study): fell rapidly and remained suppressed; also recorded: falls rapidly and remains suppressed

colistin
time to first exacerbation compared to placebo [2]: not to be associated with a statistically significant improvement
